What was measured:
[1] = target: human recombinant AMPK α2β1γ1 (Homo sapiens, UniProt P54619); experiment: In vitro AMP kinase assay (pACC ELISA), α2β1γ1; format: biochemical; set-up: purchased SignalChem P47-10H-05/P48-10H-05 (for all four isozymes together); host or cells: baculovirus expression
Source text: Having observed the effect of Activator-3 on the activation of AMPK in cell based assays, we next examined whether Activator-3 could activate AMPK directly or not. […] The activity of recombinant human AMPK (α1β1γ1, α2β1γ1, α2β2γ2 and α2β2γ3) in the presence of vehicle was considered as 100%. The EC50 of Activator-3 for the activation of α1β1γ1, α2β1γ1 and α2β2γ2 isozymes were similar. However, the activity of Activator-3 against α2β2γ3 was marginally higher (Fig. 1C).
A high binding Enzyme Immuno Assay (EIA) 96-well plate (Sigma: Cat# CLS3590) was coated with Acetyl CoA Carboxylase 2 (ACC: 175–271 amino acids) peptide, a direct substrate for AMPK, 100 ng per well (1:1000 ratio, Cat# 12–491, Upstate biotechnology) and incubated overnight at 25 °C. Reaction mixture was incubated at 30 °C for 2 h and reaction was stopped by washing the plate with 0.05% Tween 20 followed by incubation with pACC primary antibody and rabbit secondary antibody as described in cell based ELISA section. Assay buffer is composed of 10 mM DTT, 100 mM magnesium acetate, 50 μM ATP and 10 mM HEPES.

SRC = target: T1, SRC (Homo sapiens, UniProt P12931); experiment: Cell-free kinase panel (Kinexus); format: biochemical; settings: 10 µM
T1 construct: purchased Kinexus, Canada (screening service)
Procedure: (§1) To determine whether Activator-3 affects the activity of any other protein kinases, we screened it in cell-free assays against a panel of 100 protein kinases (Kinexus, Canada). […] Three kinases, DDR1 (−79%), SRC (−71%) and ALK5 (−61%) were inhibited by Activator-3 by more than 50% at 10 µM.

ROR2 = target: T2, ROR2 (Homo sapiens, UniProt Q01974); experiment: Cell-free kinase panel (Kinexus); format: biochemical; settings: 10 µM
T2 construct: purchased Kinexus, Canada (screening service)
Procedure: as §1

LRRK2 = target: T3, LRRK2 (Homo sapiens, UniProt Q5S007); experiment: Cell-free kinase panel (Kinexus); format: biochemical; settings: 10 µM
T3 construct: purchased Kinexus, Canada (screening service)
Procedure: as §1

CAMKK2 = target: T4, CAMKK2 (Homo sapiens, UniProt Q96RR4); experiment: Cell-free kinase panel (Kinexus); format: biochemical
T4 construct: purchased Kinexus, Canada (screening service)
Procedure: as §1

DDR1 = target: T5, DDR1 (Homo sapiens, UniProt Q08345); experiment: Cell-free kinase panel (Kinexus); format: biochemical; settings: 10 µM
T5 construct: purchased Kinexus, Canada (screening service)
Procedure: as §1

PRK1 = target: T6, PRK1 (Homo sapiens, UniProt Q16512); experiment: Cell-free kinase panel (Kinexus); format: biochemical; settings: 10 µM
T6 construct: purchased Kinexus, Canada (screening service)
Procedure: as §1

TAK1 = target: T7, TAK1 (Homo sapiens, UniProt O43318); experiment: Cell-free kinase panel (Kinexus); format: biochemical; settings: 10 µM
T7 construct: purchased Kinexus, Canada (screening service)
Procedure: as §1

ALK5 = target: T8, ALK5 (Homo sapiens, UniProt P36897); experiment: Cell-free kinase panel (Kinexus); format: biochemical; settings: 10 µM
T8 construct: purchased Kinexus, Canada (screening service)
Procedure: as §1

PAK1 = target: T9, PAK1 (Homo sapiens, UniProt Q13153); experiment: Cell-free kinase panel (Kinexus); format: biochemical; settings: 10 µM
T9 construct: purchased Kinexus, Canada (screening service)
Procedure: as §1

HSD fed diabetic rats = experiment: HSD fed insulin resistant diabetic rats; format: in vivo, rat
Procedure: Approximately 100 mg of soleus muscle tissue was taken and lysed with RIPA lysis buffer. Lysates were resolved on 12% SDS–polyacrylamide gels and were transferred to PVDF membrane (Millipore, USA). Membrane was blocked with 5% nonfat milk in TRIS buffered saline (TBS; 10 mM TRIS (pH 8.0), 150 mM NaCl) for 1 hour and probed with primary antibody of interest: phospho-AMPK (Thr^172) (1:1000; Cell Signaling Technology, USA), phospho-ACC (Ser^79) (1:1000; Cell Signaling Technology, USA), total AMPK (1:1000; Cell Signaling Technology, USA), total ACC (1:1000; Cell Signaling Technology, USA), and total Actin (1:1000; Santa Cruz Biotechnology, USA). Subsequently, membranes were incubated with corresponding HRP-conjugated secondary antibodies. The chemiluminescence signals were captured on photographic films using an enhanced chemiluminescence (Thermo Scientific, USA).The loading controls of phospho-ACC and phospho-AMPK in Fig. 6J were probed in parallel gels.
Twelve weeks old healthy colony bred male Wistar rats, weighing about 150–200 grams were purchased from the animal research facility (Cadila Pharma limited, Ahmedabad, India) and maintained at the animal house of Institute of pharmacy (Nirma University, India). All the methods were carried out in accordance with the approved guidelines. Experimental protocol involving animals was reviewed and approved by the Animal Ethical Committee of Institute of Science, Nirma University, Ahmedabad, India (Protocol No. IS/FAC/14-1/021) Animals were maintained in polypropylene cages in a standard photoperiod (12 h light:12 h dark cycle) and temperature (27 ± 1 °C) controlled room with the provision of laboratory food (Gold Mohur feeds Ltd, New Delhi, India) and water ad libitum. Animals were segregated into three different experimental groups with 6 animals in each as follows: non-diabetic group with standard chow diet (control group, CD), Diabetic group with high sucrose diet (65%, treated group, HSD)[84] and HSD with AMPK Activator-3 treated group (10 mg/kg body weight of animal). Post HSD induction animals were treated with AMPK Activator-3 for 30 days.
Animals were subjected to an OGTT at a beginning of the treatment (0 day) and a day before the end of the experiment (30 day). OGTT was performed after 12 h of the fasting. Briefly, after fasting, animals were given a glucose load (2 g/kg) orally. Blood samples were collected from the animal tail vein at 0 min (before glucose administration) and at 15, 30, 60, 90 and 120 min after glucose administration. Glucose concentration was determined using a CareSensN blood glucose monitor and glucose strips. Area under the curve for glucose (AUCglucose) was calculated using the trapezoidal rule.
Approximately, 1 ml of the blood samples was collected from the retro-orbital plexus of the animals under the mild anesthesia using diethyl ether. Blood was then transferred to the microfuge tubes for separation of plasma and serum at 0 day (start of the treatment) and the last day of the experiment (30 day). Total cholesterol and triglycerides levels were estimated from plasma using a diagnostic kit from Accucare India Ltd according to the protocol mentioned by the manufacturer.
Plasma FFA was estimated using chloroform and triethyalanomine extraction method by measuring the absorbance at 440 nm. The stearic acid was used as standard fatty acid and detailed protocol was performed as mentioned[85],[86]. […]

[2] = 10 mg/kg oral once a day, 30th day

human recombinant AMPK α2β1γ1, sequence (P54619 whole entry): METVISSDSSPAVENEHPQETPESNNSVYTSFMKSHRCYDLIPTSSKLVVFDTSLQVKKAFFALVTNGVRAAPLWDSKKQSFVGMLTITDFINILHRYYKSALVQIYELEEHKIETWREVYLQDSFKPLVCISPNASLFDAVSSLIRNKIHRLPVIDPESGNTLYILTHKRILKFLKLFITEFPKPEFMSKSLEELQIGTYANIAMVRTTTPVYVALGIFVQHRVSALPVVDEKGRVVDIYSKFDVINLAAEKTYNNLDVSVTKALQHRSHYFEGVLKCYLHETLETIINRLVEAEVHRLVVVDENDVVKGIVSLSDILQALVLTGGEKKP
human recombinant AMPK α2β1γ1, sequence (P54646 whole entry partner): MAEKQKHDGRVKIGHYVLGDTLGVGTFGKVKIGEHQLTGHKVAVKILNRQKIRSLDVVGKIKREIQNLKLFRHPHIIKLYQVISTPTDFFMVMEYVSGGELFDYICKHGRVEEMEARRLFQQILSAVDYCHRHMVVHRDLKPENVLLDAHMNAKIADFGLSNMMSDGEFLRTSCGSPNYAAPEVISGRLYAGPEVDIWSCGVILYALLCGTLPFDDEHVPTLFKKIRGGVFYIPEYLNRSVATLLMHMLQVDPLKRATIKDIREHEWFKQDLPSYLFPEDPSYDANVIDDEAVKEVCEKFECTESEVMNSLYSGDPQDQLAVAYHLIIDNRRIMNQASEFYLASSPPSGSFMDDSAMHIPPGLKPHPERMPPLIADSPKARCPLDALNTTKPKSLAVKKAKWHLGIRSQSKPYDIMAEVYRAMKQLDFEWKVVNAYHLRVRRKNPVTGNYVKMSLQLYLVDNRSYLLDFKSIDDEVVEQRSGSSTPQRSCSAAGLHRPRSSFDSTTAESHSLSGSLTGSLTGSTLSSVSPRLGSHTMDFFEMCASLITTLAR
human recombinant AMPK α2β1γ1, sequence (Q9Y478 whole entry partner): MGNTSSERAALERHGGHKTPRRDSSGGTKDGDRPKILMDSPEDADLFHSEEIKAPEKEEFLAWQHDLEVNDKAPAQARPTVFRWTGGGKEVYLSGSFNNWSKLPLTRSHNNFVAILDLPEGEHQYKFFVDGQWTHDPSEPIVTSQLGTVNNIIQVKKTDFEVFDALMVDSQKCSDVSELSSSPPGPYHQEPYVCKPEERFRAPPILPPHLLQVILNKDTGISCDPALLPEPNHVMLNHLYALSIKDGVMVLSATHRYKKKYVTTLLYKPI
T9 sequence (Q13153 whole entry): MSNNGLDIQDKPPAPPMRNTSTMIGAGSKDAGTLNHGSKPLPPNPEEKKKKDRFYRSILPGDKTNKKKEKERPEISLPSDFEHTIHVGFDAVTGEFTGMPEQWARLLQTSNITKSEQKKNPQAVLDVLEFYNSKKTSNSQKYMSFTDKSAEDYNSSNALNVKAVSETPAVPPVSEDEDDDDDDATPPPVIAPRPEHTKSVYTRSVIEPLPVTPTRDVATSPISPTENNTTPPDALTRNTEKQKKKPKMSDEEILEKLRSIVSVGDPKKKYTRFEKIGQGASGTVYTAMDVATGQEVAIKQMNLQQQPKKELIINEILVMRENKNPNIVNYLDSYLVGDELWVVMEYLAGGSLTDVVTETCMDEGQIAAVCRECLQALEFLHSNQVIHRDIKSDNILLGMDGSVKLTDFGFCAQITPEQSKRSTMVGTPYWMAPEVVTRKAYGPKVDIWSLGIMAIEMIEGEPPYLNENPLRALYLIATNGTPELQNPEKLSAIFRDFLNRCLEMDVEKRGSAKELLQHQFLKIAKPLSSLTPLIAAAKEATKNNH
T3 sequence (Q5S007 whole entry, species assumed): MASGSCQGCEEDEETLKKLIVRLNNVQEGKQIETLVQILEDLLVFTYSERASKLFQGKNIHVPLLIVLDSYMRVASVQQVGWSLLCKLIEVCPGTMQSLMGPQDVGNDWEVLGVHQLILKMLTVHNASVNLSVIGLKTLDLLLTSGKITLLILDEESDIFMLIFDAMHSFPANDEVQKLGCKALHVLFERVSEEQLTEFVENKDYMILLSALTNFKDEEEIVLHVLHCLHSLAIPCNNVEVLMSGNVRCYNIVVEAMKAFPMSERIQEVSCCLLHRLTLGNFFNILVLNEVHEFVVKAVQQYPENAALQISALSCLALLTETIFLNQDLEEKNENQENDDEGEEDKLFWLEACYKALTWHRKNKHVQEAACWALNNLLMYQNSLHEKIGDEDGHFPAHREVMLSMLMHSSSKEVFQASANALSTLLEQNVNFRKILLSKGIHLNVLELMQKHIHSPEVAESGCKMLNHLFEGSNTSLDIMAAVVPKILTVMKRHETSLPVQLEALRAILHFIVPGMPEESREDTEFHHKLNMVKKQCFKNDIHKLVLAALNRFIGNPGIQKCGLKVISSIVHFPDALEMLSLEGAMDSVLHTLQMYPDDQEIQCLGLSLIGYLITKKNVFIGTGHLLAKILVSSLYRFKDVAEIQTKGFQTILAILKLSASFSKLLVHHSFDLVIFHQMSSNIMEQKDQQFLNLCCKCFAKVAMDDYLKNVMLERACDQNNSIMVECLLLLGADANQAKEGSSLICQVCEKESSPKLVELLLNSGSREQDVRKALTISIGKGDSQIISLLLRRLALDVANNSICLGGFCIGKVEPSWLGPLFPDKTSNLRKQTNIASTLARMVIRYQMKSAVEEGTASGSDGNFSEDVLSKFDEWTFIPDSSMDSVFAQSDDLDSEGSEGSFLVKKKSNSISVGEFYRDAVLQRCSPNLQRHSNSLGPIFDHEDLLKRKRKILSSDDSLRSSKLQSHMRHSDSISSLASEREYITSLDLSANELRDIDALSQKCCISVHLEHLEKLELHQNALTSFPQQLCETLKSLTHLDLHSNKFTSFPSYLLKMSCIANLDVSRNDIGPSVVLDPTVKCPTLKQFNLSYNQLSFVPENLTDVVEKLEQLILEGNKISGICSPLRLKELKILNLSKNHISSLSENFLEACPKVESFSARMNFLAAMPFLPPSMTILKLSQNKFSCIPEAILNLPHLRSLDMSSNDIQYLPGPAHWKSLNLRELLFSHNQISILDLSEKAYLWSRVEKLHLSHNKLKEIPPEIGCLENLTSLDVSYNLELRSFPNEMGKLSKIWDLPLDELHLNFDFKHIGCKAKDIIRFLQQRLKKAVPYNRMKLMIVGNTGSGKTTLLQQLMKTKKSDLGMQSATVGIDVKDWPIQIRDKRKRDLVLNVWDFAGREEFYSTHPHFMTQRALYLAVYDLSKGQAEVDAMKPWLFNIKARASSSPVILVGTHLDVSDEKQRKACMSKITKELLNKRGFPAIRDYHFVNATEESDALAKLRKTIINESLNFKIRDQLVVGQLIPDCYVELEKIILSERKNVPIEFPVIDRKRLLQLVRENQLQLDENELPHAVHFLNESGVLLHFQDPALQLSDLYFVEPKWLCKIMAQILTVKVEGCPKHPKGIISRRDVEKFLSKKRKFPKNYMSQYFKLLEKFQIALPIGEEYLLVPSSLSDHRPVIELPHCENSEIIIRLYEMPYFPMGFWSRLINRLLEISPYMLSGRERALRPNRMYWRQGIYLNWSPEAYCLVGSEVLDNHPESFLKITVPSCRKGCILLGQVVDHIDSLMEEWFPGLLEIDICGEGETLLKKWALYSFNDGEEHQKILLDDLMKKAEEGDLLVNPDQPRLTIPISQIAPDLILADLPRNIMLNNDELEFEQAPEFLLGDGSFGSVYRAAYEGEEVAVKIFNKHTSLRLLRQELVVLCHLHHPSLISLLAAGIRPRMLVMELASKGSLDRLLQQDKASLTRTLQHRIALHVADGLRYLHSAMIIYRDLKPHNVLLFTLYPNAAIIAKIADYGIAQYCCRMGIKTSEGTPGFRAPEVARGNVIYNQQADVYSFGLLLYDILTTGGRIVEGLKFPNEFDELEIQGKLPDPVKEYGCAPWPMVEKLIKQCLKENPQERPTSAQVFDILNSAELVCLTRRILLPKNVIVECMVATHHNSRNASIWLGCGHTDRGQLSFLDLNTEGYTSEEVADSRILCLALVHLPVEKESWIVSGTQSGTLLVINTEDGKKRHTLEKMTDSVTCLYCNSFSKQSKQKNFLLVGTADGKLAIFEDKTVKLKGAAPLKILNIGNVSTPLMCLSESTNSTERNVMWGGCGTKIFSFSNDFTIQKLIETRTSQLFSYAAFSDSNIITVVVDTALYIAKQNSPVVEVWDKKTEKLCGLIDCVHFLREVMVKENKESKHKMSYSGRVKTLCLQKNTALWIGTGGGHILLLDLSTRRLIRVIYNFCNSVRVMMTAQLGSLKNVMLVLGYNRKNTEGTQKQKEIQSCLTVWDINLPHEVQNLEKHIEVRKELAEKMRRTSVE
T4 sequence (Q96RR4 whole entry, species assumed): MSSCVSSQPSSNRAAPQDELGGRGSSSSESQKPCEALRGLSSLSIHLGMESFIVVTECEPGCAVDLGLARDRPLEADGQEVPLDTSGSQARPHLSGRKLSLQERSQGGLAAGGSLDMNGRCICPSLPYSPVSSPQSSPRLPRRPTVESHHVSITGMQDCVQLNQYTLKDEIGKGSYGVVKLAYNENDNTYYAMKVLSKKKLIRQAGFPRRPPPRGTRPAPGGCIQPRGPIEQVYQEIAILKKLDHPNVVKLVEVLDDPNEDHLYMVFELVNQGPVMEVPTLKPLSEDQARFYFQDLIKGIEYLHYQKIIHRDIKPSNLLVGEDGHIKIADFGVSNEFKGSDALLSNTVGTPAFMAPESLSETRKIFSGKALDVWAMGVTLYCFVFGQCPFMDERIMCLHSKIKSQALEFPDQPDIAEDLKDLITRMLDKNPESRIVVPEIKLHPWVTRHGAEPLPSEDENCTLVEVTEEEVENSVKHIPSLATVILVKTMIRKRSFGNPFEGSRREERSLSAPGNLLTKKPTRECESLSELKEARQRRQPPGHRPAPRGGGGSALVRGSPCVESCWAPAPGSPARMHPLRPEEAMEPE

reduction of AMPK activity stimulated by 100 µM AMP ([1]; Activator-3 1 nM to 10 μM with 100 µM AMP): ~ 50% | EC50 ([1]; read-out: EC50 allosteric activation hα2β1γ1): ~23 nM | activity change (SRC): −71% | activity change (ROR2): −35% | activity change (LRRK2): −34% | inhibition at 10 µM (CAMKK2): 36% | activity change (DDR1): −79% | activity change (PRK1): −36% | effect on kinase activity (TAK1): not affected | activity change (ALK5): −61% | activity change (PAK1): −42%
Compound: O=C(O)Cc1csc(Nc2ccc(C(F)(F)F)cc2)n1 [Activator-3, 2-[2-(4-(trifluoromethyl)phenylamino)thiazol-4-yl]acetic acid]
glucose concentration in OGTT vs HSD group (HSD fed diabetic rats; [2]): significantly reduced | plasma free fatty acid vs HSD group (HSD fed diabetic rats; [2]): significantly lower | plasma total cholesterol vs HSD group (HSD fed diabetic rats; [2]): significantly lower | HSD induced body weight gain (HSD fed diabetic rats; 10 mg/kg oral once a day, 30 days, p < 0.05): decreased | phosphorylation of AMPK and ACC in soleus muscle (HSD fed diabetic rats; 10 mg/kg/day for 30 days, western blot): restored

— PMC6018554, “2-[2-(4-(trifluoromethyl)phenylamino)thiazol-4-yl]acetic acid (Activator-3) is a potent activator of AMPK” (Scientific Reports, 2018)
